Data as given in publication PMC11823630, “In vitro potentiation of tetracyclines in Pseudomonas aeruginosa by RW01, a new cyclic peptide” (Antimicrobial Agents and Chemotherapy, 2024).
≈ marks a conversion by molar mass, not a printed value.

Columns and labels:
P. aeruginosa 125A = assay: MIC, CLSI broth microdilution in BD Phoenix AST Broth; type: cell-based, Pseudomonas aeruginosa; details: strain 125A; for MIC: Pseudomonas aeruginosa, agent alone, 37°C, 18–22 h, three biological replicates
Experimental: (§1) MIC for RW01 was also tested.
(§2) FIC of RW01 (FICRW01)=MIC of RW01 in combination/MIC of RW01 alone,FIC of antibiotic (FICATB)=MIC of ATB in combination/MIC of ATB alone,FICI=FICRW01 +FICATB.
(§3) FICI was interpreted as follows: synergistic effect if FICI is ≤0.5; additive effect if 0.5 < FICI ≤ 1.0; indifferent effect if 1.0 < FICI ≤ 2.0; and finally, antagonistic effect if FICI is >2.0. The average FICI considering the antibiotic MIC (no growth in any of the replicates) at different concentrations of RW01 was calculated ([28]).

P. aeruginosa 125B = assay: as above; type: cell-based, Pseudomonas aeruginosa; details: strain 125B; for MIC: Pseudomonas aeruginosa, agent alone, 37°C, 18–22 h, three biological replicates
Experimental: as §1, §2, §3

P. aeruginosa 41A = assay: as above; type: cell-based, Pseudomonas aeruginosa; details: Pseudomonas aeruginosa; strain 41A; agent alone; 37°C, 18–22 h; three biological replicates
Experimental: as §1, §2, §3

P. aeruginosa 41B = assay: as above; type: cell-based, Pseudomonas aeruginosa; details: Pseudomonas aeruginosa; strain 41B; agent alone; 37°C, 18–22 h; three biological replicates
Experimental: as §1, §2, §3

P. aeruginosa PAO1 = assay: as above; type: cell-based, Pseudomonas aeruginosa; details: Pseudomonas aeruginosa, PAO1, strain PAO1; agent alone; 37°C, 18–22 h; three biological replicates; read-out: MIC
Experimental: as §1, §2, §3

P. aeruginosa PAOUW = assay: as above; type: cell-based, Pseudomonas aeruginosa; details: Pseudomonas aeruginosa, strain PAOUW; agent alone; 37°C, 18–22 h; three biological replicates; read-out: MIC
Experimental: as §1, §2, §3

P. aeruginosa PAOUW∆oprF = assay: as above; type: cell-based, Pseudomonas aeruginosa; details: Pseudomonas aeruginosa, strain PAOUWΔoprF; agent alone; 37°C, 18–22 h; three biological replicates
Experimental: as §1, §2, §3

P. aeruginosa PAOΔmexR = assay: as above; type: cell-based, Pseudomonas aeruginosa; details: for MIC: Pseudomonas aeruginosa
Experimental: as §1, §2, §3

P. aeruginosa PAOΔmexZ = assay: as above; type: cell-based, Pseudomonas aeruginosa; details: Pseudomonas aeruginosa, strain PAOΔmexZ; agent alone; 37°C, 18–22 h; three biological replicates
Experimental: as §1, §2, §3

P. aeruginosa PAOΔoprM = assay: as above; type: cell-based, Pseudomonas aeruginosa; details: Pseudomonas aeruginosa
Experimental: as §1, §2, §3

P. aeruginosa PAO1, WT = assay: MIC, Sensititre custom plate; type: cell-based; details: Pseudomonas aeruginosa, PAO1, read-out: MIC, Sensititre
Experimental: (§4) Selection of resistant mutants was performed for minocycline with and without RW01 in three independent replicates for wild-type P. aeruginosa reference strain PAO1. Tubes containing Mueller-Hinton broth (MHB) were inoculated and incubated for 24 h at 37°C. Afterward, 1/100 dilution of each tube was incubated at 37°C in MHB to late-exponential growth phase, measured by spectrophotometry at OD600. […] A control plate without antibiotic was included as inoculum control. After overnight incubation, colony counting of each treatment was performed to analyze the generation of resistant population. The mutant prevention concentration (MPC) was defined as the lowest concentration of antibiotic yielding no growth of resistant mutants. Selected mutants were checked for susceptibility profiles by using a Sensititre custom plate (Thermo Fisher Scientific, Massachusetts, USA) for Gram-negative bacteria, following the manufacturer’s instructions.

[1] = test system: PAO1 mutant MIN16_1, nalD(T43P); assay: MIC, Sensititre custom plate; type: cell-based; details: Pseudomonas aeruginosa, PAO1, read-out: MIC, Sensititre
Experimental: as §4

[2] = test system: PAO1 mutant MIN16_2, nalC(aa9∆4), pilQ(nt46∆1); assay: MIC, Sensititre custom plate; type: cell-based; details: Pseudomonas aeruginosa, PAO1, read-out: MIC, Sensititre
Experimental: as §4

[3] = test system: PAO1 mutant MIN16_3, nfxB(nt79∆14), pilB(N349K); assay: MIC, Sensititre custom plate; type: cell-based; details: Pseudomonas aeruginosa, PAO1, read-out: MIC, Sensititre
Experimental: as §4

[4] = test system: PAO1 mutant MIN16_4, nalC(T50P), pilM(Q62X); assay: MIC, Sensititre custom plate; type: cell-based; details: Pseudomonas aeruginosa, PAO1, read-out: MIC, Sensititre
Experimental: as §4

[5] = test system: PAO1 mutant MIN1_RW01_1, pmrB(Y98N); assay: MIC, Sensititre custom plate; type: cell-based; details: Pseudomonas aeruginosa, PAO1, read-out: MIC, Sensititre
Experimental: as §4

[6] = test system: PAO1 mutant MIN1_RW01_2, mexR(G58E), pilB(G326D), hutC(Y181X); assay: MIC, Sensititre custom plate; type: cell-based; details: Pseudomonas aeruginosa, PAO1, read-out: MIC, Sensititre
Experimental: as §4

[7] = test system: PAO1 mutant MIN1_RW01_3, pmrB(V215L); assay: MIC, Sensititre custom plate; type: cell-based; details: Pseudomonas aeruginosa, PAO1, read-out: MIC, Sensititre
Experimental: as §4

[8] = test system: PAO1 mutant MIN2_RW01_1, pmrB(V215L); assay: MIC, Sensititre custom plate; type: cell-based; details: Pseudomonas aeruginosa, PAO1, read-out: MIC, Sensititre
Experimental: as §4

[9] = test system: PAO1 mutant MIN2_RW01_2, pmrB(M292T); assay: MIC, Sensititre custom plate; type: cell-based; details: Pseudomonas aeruginosa, PAO1, read-out: MIC, Sensititre
Experimental: as §4

[10] = test system: PAO1 mutant MIN2_RW01_3, parS(V152A); assay: MIC, Sensititre custom plate; type: cell-based; details: Pseudomonas aeruginosa, PAO1, read-out: MIC, Sensititre
Experimental: as §4

[11] = test system: PAO1 mutant MIN2_RW01_4, pmrB(M292T); assay: MIC, Sensititre custom plate; type: cell-based; details: Pseudomonas aeruginosa, PAO1, read-out: MIC, Sensititre
Experimental: as §4

[12] = test system: PAO1 mutant MIN32_1, mexR(R63H), pilB(N349K), PA0646(V316G); assay: MIC, Sensititre custom plate; type: cell-based; details: Pseudomonas aeruginosa, PAO1, read-out: MIC, Sensititre
Experimental: as §4

[13] = test system: PAO1 mutant MIN4_RW01_1, pmrB(R429H); assay: MIC, Sensititre custom plate; type: cell-based; details: Pseudomonas aeruginosa, PAO1, read-out: MIC, Sensititre
Experimental: as §4

[14] = test system: PAO1 mutant MIN4_RW01_3, pmrB(M292T); assay: MIC, Sensititre custom plate; type: cell-based; details: Pseudomonas aeruginosa, PAO1, read-out: MIC, Sensititre
Experimental: as §4

[15] = test system: PAO1 mutant MIN4_RW01_4, pmrB(Y98N); assay: MIC, Sensititre custom plate; type: cell-based; details: Pseudomonas aeruginosa, PAO1, read-out: MIC, Sensititre
Experimental: as §4

[16] = test system: PAO1 mutant MIN8_1, nalD(R3C), pilM(Q62X); assay: MIC, Sensititre custom plate; type: cell-based; details: Pseudomonas aeruginosa, PAO1, read-out: MIC, Sensititre
Experimental: as §4

[17] = test system: PAO1 mutant MIN8_2, pilZ(nt18InsT); assay: MIC, Sensititre custom plate; type: cell-based; details: Pseudomonas aeruginosa, PAO1, read-out: MIC, Sensititre
Experimental: as §4

[18] = test system: PAO1 mutant MIN8_3, pilZ(nt18InsT); assay: MIC, Sensititre custom plate; type: cell-based; details: Pseudomonas aeruginosa, PAO1, read-out: MIC, Sensititre
Experimental: as §4

[19] = test system: PAO1 mutant MIN8_4, pilZ(nt18InsT); assay: MIC, Sensititre custom plate; type: cell-based; details: Pseudomonas aeruginosa, PAO1, read-out: MIC, Sensititre
Experimental: as §4

[20] = test system: PAO1 mutant MIN1_RW01_4, pmrB(F124L); assay: microbe, parasite or virus in culture; type: cell-based; details: Pseudomonas aeruginosa, PAO1, read-out: MIC, Sensititre
Experimental: as §4

[21] = test system: PAO1 mutant MIN4_RW01_2, pmrB(F124S); assay: microbe, parasite or virus in culture; type: cell-based; details: Pseudomonas aeruginosa, PAO1, read-out: MIC, Sensititre
Experimental: as §4

[22] = antibiotic MIC alone vs with RW01 100 mg/L

SMILES	MIC (P. aeruginosa 125A)	MIC (P. aeruginosa 125B)	MIC (P. aeruginosa 41A)	MIC (P. aeruginosa 41B)	MIC (P. aeruginosa PAO1)	MIC (P. aeruginosa PAOUW)	MIC (P. aeruginosa PAOUW∆oprF)	MIC (P. aeruginosa PAOΔmexR)	MIC (P. aeruginosa PAOΔmexZ)	MIC (P. aeruginosa PAOΔoprM)	MIC (P. aeruginosa PAO1, WT)	MIC [1]	MIC [2]	MIC [3]	MIC [4]	MIC [5]	MIC [6]	MIC [7]	MIC [9]	MIC [10]	also measured
O=C(N[C@H](CO)[C@H](O)c1ccc([N+](=O)[O-])cc1)C(Cl)Cl [Chloramphenicol, chloramphenicol]	128 µg/mL	64 µg/mL	128 µg/mL	128 µg/mL	32 µg/mL	> 512 µg/mL	32 µg/mL	32 µg/mL	32 µg/mL	4 µg/mL											Potentiation (fold) (P. aeruginosa 125A; [22]): ≥ 8 fold; Potentiation (fold) (P. aeruginosa 125B; [22]): ≥ 8 fold
NC[C@H]1O[C@H](O[C@H]2[C@H](O)[C@@H](O[C@H]3O[C@H](CO)[C@@H](O)[C@H](N)[C@H]3O)[C@H](N)C[C@@H]2N)[C@H](N)C[C@@H]1O [TOB, tobramycin]											0.25 to 0.5 µg/mL (≈ 0.535 to 1.07 µM)	0.5 µg/mL (≈ 1.07 µM)	≤ 0.25 µg/mL	≤ 0.25 µg/mL	≤ 0.25 µg/mL	1 µg/mL (≈ 2.14 µM)	≤ 0.25 µg/mL	1 µg/mL (≈ 2.14 µM)	0.5 µg/mL (≈ 1.07 µM)	1 µg/mL (≈ 2.14 µM)	MIC [8]: 0.5 µg/mL (≈ 1.07 µM); MIC [11]: 0.5 µg/mL (≈ 1.07 µM); MIC [12]: 0.25 to 0.5 µg/mL (≈ 0.535 to 1.07 µM); MIC [13]: 0.5 µg/mL (≈ 1.07 µM); MIC [14]: 0.5 µg/mL (≈ 1.07 µM); MIC [15]: 1 µg/mL (≈ 2.14 µM); MIC [16]: 0.5 µg/mL (≈ 1.07 µM); MIC [17]: 0.5 µg/mL (≈ 1.07 µM); MIC [18]: ≤ 0.25 µg/mL; MIC [19]: 0.5 µg/mL (≈ 1.07 µM); MIC [20]: ≤ 0.25 µg/mL; MIC [21]: 0.5 µg/mL (≈ 1.07 µM)
C[C@H]1[C@H](NC(=O)/C(=N\OC(C)(C)C(=O)O)c2csc(N)n2)C(=O)N1S(=O)(=O)O [Aztreonam, aztreonam]	8 µg/mL	8 µg/mL	8 µg/mL	8 µg/mL	8 µg/mL	2 µg/mL	8 µg/mL	4 µg/mL	8 µg/mL	0.5 µg/mL	2 to 4 µg/mL (≈ 4.59 to 9.19 µM)	16 µg/mL (≈ 36.7 µM)	8 to 16 µg/mL (≈ 18.4 to 36.7 µM)	2 to 4 µg/mL (≈ 4.59 to 9.19 µM)	16 µg/mL (≈ 36.7 µM)	≤ 2 µg/mL	16 µg/mL (≈ 36.7 µM)	≤ 2 µg/mL	4 µg/mL (≈ 9.19 µM)	4 µg/mL (≈ 9.19 µM)	MIC [8]: 4 to 8 µg/mL (≈ 9.19 to 18.4 µM); MIC [12]: 16 µg/mL (≈ 36.7 µM); MIC [13]: 16 µg/mL (≈ 36.7 µM); MIC [14]: ≤ 2 µg/mL; MIC [15]: ≤ 2 µg/mL; MIC [18]: 16 µg/mL (≈ 36.7 µM); MIC [19]: 16 µg/mL (≈ 36.7 µM); MIC [21]: ≤ 2 µg/mL
CO/N=C(\C(=O)N[C@@H]1C(=O)N2C(C(=O)[O-])=C(C[N+]3(C)CCCC3)CS[C@H]12)c1csc(N)n1 [Cefepime, cefepime]	4 µg/mL	4 µg/mL	8 µg/mL	8 µg/mL	2 µg/mL	4 µg/mL	0.5 µg/mL		2 µg/mL	1 µg/mL	≤ 1 µg/mL	4 µg/mL (≈ 8.32 µM)	4 µg/mL (≈ 8.32 µM)	4 µg/mL (≈ 8.32 µM)	4 µg/mL (≈ 8.32 µM)	≤ 1 µg/mL	4 µg/mL (≈ 8.32 µM)	≤ 1 µg/mL	4 µg/mL (≈ 8.32 µM)	4 µg/mL (≈ 8.32 µM)	Antibiotic MIC + RW01 100 mg/L (P. aeruginosa PAOΔmexR; strain PAOΔmexR, MIC of the antibiotic with fixed 100 mg/L RW01): 0.5 µg/mL; Potentiation (fold) (P. aeruginosa PAOΔmexR; strain PAOΔmexR, antibiotic MIC alone vs with RW01 100 mg/L): ≥ 8 fold; MIC [11]: 4 µg/mL (≈ 8.32 µM); MIC [12]: 4 µg/mL (≈ 8.32 µM); MIC [13]: 4 to 8 µg/mL (≈ 8.32 to 16.6 µM); MIC [14]: ≤ 1 µg/mL; MIC [15]: ≤ 1 µg/mL; MIC [16]: 4 µg/mL (≈ 8.32 µM); MIC [17]: 4 µg/mL (≈ 8.32 µM); MIC [18]: 4 µg/mL (≈ 8.32 µM); MIC [19]: 4 µg/mL (≈ 8.32 µM); MIC [21]: ≤ 1 µg/mL
CCN[C@@H]1C[C@H](N)[C@@H](O[C@H]2OC(CN)=CC[C@H]2N)[C@H](O)[C@H]1O[C@H]1OC[C@](C)(O)[C@H](NC)[C@H]1O [Netilmicin, netilmicin]	8 µg/mL	8 µg/mL	8 µg/mL	8 µg/mL	8 µg/mL	2 µg/mL	8 µg/mL	8 µg/mL	8 µg/mL	1 µg/mL											
